Assay results as given in patent publication US10828515B2, “Compositions containing phenolic compounds having synergistic antioxidant benefits” (L'OREAL, priority 2016, dated 2020).

Experiment: oxygen radical absorbance capacity assay (ORAC)
Format: biochemical
Conditions: individual antioxidant compounds
Procedure: Synergism was determined by comparing the antioxidant capacities of combinations of components measured by oxygen radical absorbance capacity assay (ORAC) with expected or additive values of the individual compounds. As reflected in the Examples below, the expected ORAC is the combined (additive) antioxidant capacity of each individual antioxidant compound in the association, measured individually and assuming that each is functioning independently. The expected ORAC value of a certain association can be calculated by using the following equation: ORAC (total)=sum of ORAC (compound n, individually) multiplied by the Percentage (compound n, of use in a cosmetic composition), n=1, 2, 3 . . . .
The ORAC assay measures the oxidative degradation of the fluorescent probe (fluorescein) after being mixed with free radical generators such as azo-initiator compounds (2,2′-Azobis(2-amidinopropane)dihydrochloride, AAPH). Azo-initiators are considered to produce the peroxyl radical by heating, which damages the fluorescent molecule, resulting in the loss of fluorescence. Antioxidants are considered to protect the fluorescent molecule from the oxidative degeneration. By quantifying the decay of fluorescence using a fluorometer, the degree of protection is determined comparing with a standard control antioxidant Trolox. The result is expressed in μMol equivalent of Trolox.

Going from O=C(O)[C@H]1O[C@@H](Oc2cc3oc(-c4ccccc4)cc(=O)c3c(O)c2O)[C@H](O)[C@@H](O)[C@@H]1O [baicalin] to OC[C@H]1O[C@@H](Oc2cc(O)cc(/C=C/c3ccc(O)cc3)c2)[C@H](O)[C@@H](O)[C@@H]1O [Polydatin], the ORAC rises from 4759 μmolTolox/g to 20159 μmolTolox/g.

Cc1c(C)c2c(c(C)c1O)CCC(C)(C(=O)O)O2 (stereo not drawn) [Trolox (VitE), Trolox] showed an ORAC of 1000 μmolTolox/g.
